Experiments:
[1] = tested on: isolation-induced aggressive behavior; experiment: Isolation-Induced Aggression in Mice; assay type: in vivo, mouse (male Balb/c); settings: po
Method: Male Balb/c mice (Charles River) were used. […] Isolated mice failing to consistently attack an intruder were eliminated from the colony.
Drug testing was carried out by treating the isolated mice with test drugs or standards. Fifteen min after dosing with drugs by the oral route (po), one isolated mouse was removed from its home cage and placed in the home cage of another isolate. Scoring was a yes or no response for each pair. A maximum of 3 min was allowed for an attack and the pair was separated immediately upon an attack. Selection of home cage and intruder mice was randomized for each test. Mice were treated and tested twice a week with at least a 2 day washout period between treatments.

[2] = tested on: Botrytis cinerea; experiment: Test E: cucumber grey mold disease control (cucumber seedlings); assay type: in vivo; settings: sprayed at 1000 to 2 ppm (rate not given per compound)
Method: (§1) The test compounds were dissolved in acetone in an amount equal to 6% of the final volume and then suspended at a concentration of from 1000 to 2 ppm in purified water containing 250 ppm of the surfactant TREM 014 (polyhydric alcohol esters). This suspension was sprayed to the point of run-off on cucumber seedlings. The following day plants were inoculated with a spore suspension of Botrytis cinerea, the causal agent of cucumber grey mold, and incubated in a saturated humidity chamber at 20° C. for 48 hours and then in a greenhouse for 5 days, when disease ratings were made.

[3] = tested on: Phytophthora infestans; assay type: in vivo; settings: tomato late blight; sprayed at 1000 to 2 ppm (rate not given per compound)
[4] = tested on: Cercosporidum personatum; experiment: Test D: peanut late leaf spot disease control (peanut seedlings); assay type: in vivo; settings: sprayed at 1000 to 2 ppm (rate not given per compound)
Method: The test compounds were dissolved in acetone in an amount equal to 6% of the final volume and then suspended at a concentration of from 1000 to 2 ppm in purified water containing 250 ppm of the surfactant TREM 014 (polyhydric alcohol esters). This suspension was sprayed to the point of run-off on peanut seedlings. The following day plants were inoculated with a spore suspension of Cercosporidum personatum, the causal agent of peanut late leaf spot, and incubated in a saturated humidity chamber at 22° C. for 24 hours and then in a high humidity chamber at 27° C. for 7 days, and then in a growth chamber at 29° C. for 7 days, when disease ratings were made.

[5] = tested on: Erysiphe graminis f. sp. tritici; experiment: Test A: wheat powdery mildew disease control (wheat seedlings); assay type: in vivo; settings: sprayed at 1000 to 2 ppm (rate not given per compound)
Method: as §1, with “on wheat” for “on cucumber”, “spore dust” for “spore suspension”, “of Erysiphe graminis f. sp. tritici,” for “of Botrytis cinerea,”, “of wheat powdery mildew,” for “of cucumber grey mold,”, “a growth” for “a saturated humidity”, “for 7” for “for 48 hours and then in a greenhouse for 5”

[6] = tested on: Rhizoctonia solani; experiment: Test I: rice sheath blight disease control (rice seedlings); assay type: in vivo; settings: sprayed at 1000 to 2 ppm (rate not given per compound)
Method: The test compounds were dissolved in acetone in an amount equal to 6% of the final volume and then suspended at a concentration of from 1000 to 2 ppm in purified water containing 250 ppm of the surfactant TREM 014 (polyhydric alcohol esters). This suspension was sprayed to the point of run-off on rice seedlings. The following day plants were inoculated with a mycelial suspension of Rhizoctonia solani, the causal agent of rice sheath blight, and incubated in a saturated humidity chamber at 27° C. for 48 hours and then in a growth chamber at 29° C. for 4 days, when disease ratings were made.

[7] = tested on: Venturia inaequalis; experiment: Test C: apple scab disease control (apple seedlings); assay type: in vivo; settings: sprayed at 1000 to 2 ppm (rate not given per compound)
Method: The test compounds were dissolved in acetone in an amount equal to 6% of the final volume and then suspended at a concentration of from 1000 to 2 ppm in purified water containing 250 ppm of the surfactant TREM 014 (polyhydric alcohol esters). This suspension was sprayed to the point of run-off on apple seedlings. The following day plants were inoculated with a spore suspension of Venturia inaequalis, the causal agent of apple scab, and incubated in a saturated humidity chamber at 20° C. for 24 hours and then in a growth chamber at 22° C. for 11 days, when disease ratings were made.

[8] = tested on: Pyricularia oryzae; assay type: in vivo; settings: rice blast; sprayed at 1000 to 2 ppm (rate not given per compound)
[9] = tested on: sigma receptor; settings: Tam, Eur. Pharmacol. 109: 33-41 (1985); cited from earlier work
[10] = tested on: Puccinia recondita; experiment: Test B: wheat leaf rust disease control (wheat seedlings); assay type: in vivo; settings: sprayed at 1000 to 2 ppm (rate not given per compound)
Method: The test compounds were dissolved in acetone in an amount equal to 6% of the final volume and then suspended at a concentration of from 1000 to 2 ppm in purified water containing 250 ppm of the surfactant TREM 014 (polyhydric alcohol esters). This suspension was sprayed to the point of run-off on wheat seedlings.

[11] = tested on: (+)-N-allylnormetazocine-induced turning; experiment: (+)-N-Allylnormetazocine-Induced Turning Behavior in Rats; assay type: in vivo, rat (male Sprague-Dawley); settings: p.o.

Fc1ccc(COCC2CCN(Cc3ccc4ccccc4c3)CC2)cc1 [Example 114]
inhibiting the isolation-induced aggressive behavior (in words) [1]: potent activities

O=[N+]([O-])c1ccc(OCC2CCN(Cc3ccccc3)CC2)cc1 [Example 135]
inhibiting the isolation-induced aggressive behavior (in words) [1]: potent activities

COC(=O)c1ccc(COCC2CCN(Cc3ccccc3)CC2)cc1 [Example 186]
disease control rating, Test E [2]: 0% | disease control rating, Test F [3]: 0% | disease control rating, Test D [4]: 0% | disease control rating, Test A [5]: 0% | disease control rating, Test I [6]: 0% | disease control rating, Test C [7]: 81% | disease control rating, Test H [8]: 0%

FC(F)(F)c1ccc(OCC2CCN(Cc3ccccc3)CC2)cc1 [Example 136]
inhibiting the isolation-induced aggressive behavior (in words) [1]: potent activities

c1ccc(C2(N3CCCCC3)CCCCC2)cc1 [PCP]
affinity for the sigma receptor (in words) [9]: significant affinity

Fc1ccc(COCC2CCN(Cc3ccc4ccccc4c3)CC2)cc1 [Example 195]
disease control rating, Test E [2]: 0% | disease control rating, Test F [3]: 0% | disease control rating, Test D [4]: 46% | disease control rating, Test A [5]: 99% | disease control rating, Test I [6]: 0% | disease control rating, Test C [7]: 68% | disease control rating, Test B [10]: 73% | disease control rating, Test H [8]: 0%

Fc1ccc(OCC2CCN(Cc3ccccc3)CC2)cc1 [Example 68, 1-Benzyl-4-(4'-Fluorophenoxymethyl)piperidine]
antagonism of N-allylnormetazocine-induced rotation (in words) [11]: potently antagonized | inhibiting the isolation-induced aggressive behavior (in words) [1]: potent activities

CC(C)=CCN1CCC(COCc2ccc(F)cc2)CC1 [Example 314]
disease control rating, Test E [2]: 8% | disease control rating, Test F [3]: 0% | disease control rating, Test D [4]: 75% | disease control rating, Test A [5]: 91% | disease control rating, Test I [6]: 39% | disease control rating, Test C [7]: 46% | disease control rating, Test H [8]: 0%

COC(=O)c1ccc(CN2CCC(COCc3ccc(F)cc3)CC2)cc1 [Example 187]
disease control rating, Test E [2]: 0% | disease control rating, Test F [3]: 0% | disease control rating, Test D [4]: 0% | disease control rating, Test A [5]: 98% | disease control rating, Test I [6]: 0% | disease control rating, Test C [7]: 51% | disease control rating, Test B [10]: 96% | disease control rating, Test H [8]: 0%

Fc1ccc(COC2CCN(Cc3ccccc3)CC2)cc1 [Example 315]
disease control rating, Test E [2]: 0% | disease control rating, Test F [3]: 0% | disease control rating, Test D [4]: 46% | disease control rating, Test A [5]: 99% | disease control rating, Test I [6]: 19% | disease control rating, Test C [7]: 90% | disease control rating, Test B [10]: 52% | disease control rating, Test H [8]: 0%

Clc1ccc(OCC2CCN(Cc3ccccc3)CC2)cc1 [Example 134]
inhibiting the isolation-induced aggressive behavior (in words) [1]: potent activities

From patent US5169855A, “Piperidine ether derivatives as psychotropic drugs or plant fungicides” (priority 1990, dated 1992)
